Experiment [1] addresses human recombinant dopamine D2 receptor (Homo sapiens (Human), UniProt P14416). The experiment in a line: Test of binding inhibition for the human dopamine D2 receptor ([3H]-Metylspiperone SPA binding). To be noted: [3H]-Metylspiperone 1.2 nM, Jump-In HEK cell membranes, read-out: hD2_Ki. The method, then:
Cell membranes: Jump-In HEK cell membranes expressing human recombinant dopamine D2 receptor (2 μg/well)
Buffer solution: 50 mM Tris-HCl (35409-45, Nacalai Tesque) (pH 7.4) containing 120 mM NaCl (31320-05, Nacalai Tesque), 1 mM MgCl2.6H2O (20909-55, Nacalai Tesque), 5 mM KCl (28514-75, Nacalai Tesque) and 2 mM CaCl2 (067-31, Nacalai Chemical, Ltd)
Radioligand: (final concentration) 1.2 nM [^3H]-Metylspiperone ([^3H—N-methyl-]-Metylspiperone, NET-856, 83.8 Ci/mmol, PerkinElmer)
(§1) Non-specific ligand: (final concentration) 10 μM Butaclamol [(+)-Butaclamol Hydrochioride, D033, Sigma]
(§2) SPA beads: SPA beads [WGA PVT SPA Scintillatiion Beads, RPNQ0001 (500 mg), RPNQ0060 (2 g), PerkinElmer] (0.2 mg/well)
(§3) Incubation time and temperature: 120 min at 25° C.
(§4) Butaclamol or the compounds of the present invention were weighed and DMSO was added to make a 10 mM solution. This solution was diluted to each concentration.
[^3H]-Metylspiperone was weighed and the buffer solution was added to make a 3.6 nM solution.
(§5) SPA beads were weighed and stirred in water to make a 50 mg/mL solution. Using this solution, a mixed solution with the cell membranes was prepared.
225 nL of the solutions of the non-specific ligand or the compounds of the present invention at each concentration (in case of vehicle, final concentration 0.3% DMSO) were added in each well of a 384-well white/clear bottom microplate (3706, Corning). Jump-In HEK Cell membranes (final reaction amount: 2 μg protein/well), SPA beads (final reaction amount: 0.2 mg/well) and the buffer were mixed and the mixed solution was left still for more than or equal to 1 h at 4° C. Then, 50 μL of the mixture was added to each well of the plate. In addition, 25 μL of 3.6 nM [^3H]-Metylspiperone (final concentration: 1.2 nM) was added to each well. The plate was sealed by putting TopSeal-A 96/384 well (6050185, PerkinElmer) on the top of the plate, mixed using stirring deaerator (Welltornado, FK-62, Sakaki) and incubated for 120 min at 25° C. After incubation, the radioactivity of [^3H]-Metylspiperone which was binded to D2 receptor was determined by liquid scintillation counter (1450 Microbeta, PerkinElmer) in each well. Non-specific binding was calculated based on the radioactivity of [^3H]-Metylspiperone in the presence of 10 μM non-labeled Butaclamol. The total binding was calculated using the radioactivity of [^3H]-Metylspiperone in the absence of the compounds of the present invention (Vehicle). The Ki values were calculated from dose-response curves.
(§6) Binding activities of the compounds of the present invention were calculated from the following Binding Inhibition Rate (%): Inhibition Rate (%)=[1−(c−a)(b−a)]×100(%) • a: Average cpm of non-specific binding • b: Average cpm of total binding • c: Cpm in the presence of each test compound

The target of experiment [2] is human recombinant dopamine D3 receptor (Homo sapiens (Human), UniProt P35462). The experiment in a line: Test of binding inhibition for the human dopamine D3 receptor ([3H]-Metylspiperone SPA binding). Conditions: [3H]-Metylspiperone 2 nM, Jump-In HEK cell membranes, read-out: hD3_Ki. Here is the method:
Cell membranes: Jump-In HEK cell membranes expressing human recombinant dopamine D3 receptor (4 μg/well)
as §1, §2, §3, §4
[^3H]-Metylspiperone was weighed and the buffer solution was added to make a 6 nM solution.
as §5
Jump-In HEK Cell membranes (final reaction amount: 4 μg/well), SPA beads (final reaction amount: 0.2 mg/well) and Tris-HCl buffer were mixed and the mixed solution was left still for more than 60 min at 4° C. Then, 50 μL of the mixture was added to each well of the plate. In addition, 25 μL of 6 nM [^3H]-Metylspiperone (final concentration: 2 nM) was added to each well. […] Non-specific binding was calculated based on the radioactivity of [^3H]-Metylspiperone in the presence of 10 μM non-labeled Butaclamol. The total binding was calculated based on the radioactivity of [^3H]-Metylspiperone in the absence of the compounds of the present invention (Vehicle). The Ki values were calculated from dose-response curves.
as §6

Molecules are shown by their SMILES. Bounds are passed on as bounds.

human recombinant dopamine D2 receptor, sequence (P14416 whole entry): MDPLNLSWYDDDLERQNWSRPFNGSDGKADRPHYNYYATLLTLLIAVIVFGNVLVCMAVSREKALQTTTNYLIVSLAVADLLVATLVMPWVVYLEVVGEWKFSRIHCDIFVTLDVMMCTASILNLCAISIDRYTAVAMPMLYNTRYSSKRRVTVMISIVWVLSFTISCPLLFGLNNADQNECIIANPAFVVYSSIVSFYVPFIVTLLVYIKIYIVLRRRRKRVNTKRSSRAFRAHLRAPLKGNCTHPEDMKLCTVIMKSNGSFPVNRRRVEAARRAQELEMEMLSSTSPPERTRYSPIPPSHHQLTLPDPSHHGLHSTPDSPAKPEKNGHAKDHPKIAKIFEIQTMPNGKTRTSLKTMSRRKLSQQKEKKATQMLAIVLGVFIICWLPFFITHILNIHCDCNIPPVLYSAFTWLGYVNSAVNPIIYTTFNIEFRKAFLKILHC
human recombinant dopamine D3 receptor, sequence (P35462 whole entry): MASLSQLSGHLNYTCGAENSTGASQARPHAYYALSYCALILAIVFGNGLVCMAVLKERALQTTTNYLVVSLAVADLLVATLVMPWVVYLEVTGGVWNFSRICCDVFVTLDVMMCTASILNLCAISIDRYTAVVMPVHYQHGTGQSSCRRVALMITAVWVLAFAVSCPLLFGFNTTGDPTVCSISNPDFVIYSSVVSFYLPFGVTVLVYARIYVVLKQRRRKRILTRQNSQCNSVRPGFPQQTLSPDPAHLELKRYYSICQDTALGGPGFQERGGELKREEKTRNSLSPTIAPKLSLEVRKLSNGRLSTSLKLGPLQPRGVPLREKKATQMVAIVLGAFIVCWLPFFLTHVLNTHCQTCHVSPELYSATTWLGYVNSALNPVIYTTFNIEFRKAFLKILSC

As for `Cc1cnc(CC(=O)N[C@H]2CC[C@H](CCN3CCc4nc(OCC(F)(F)F)sc4CC3)OC2)o1` [III-220], the Ki in experiment [1] turned out to be 1100 nM; in experiment [2], 0.78 nM.

`Cc1cc2c(C(=O)N[C@H]3CC[C@H](CCN4CCc5ccc(OCC(F)(F)F)nc5CC4)OC3)cccn2n1` [III-228]: the figures for the Ki in experiment [1] and in experiment [2] were 330 nM and 0.16 nM, respectively.

Consider `Cn1cc(CC(=O)N[C@H]2CC[C@H](CCN3CCc4ccc(OCC(F)(F)F)nc4CC3)OC2)cn1` [III-230], for which the values for the Ki in experiment [1] and in experiment [2] were 640 nM and 0.99 nM, respectively.

Regarding `Cc1ncc(CC(=O)N[C@H]2CC[C@H](CCN3CCc4ccc(OCC(F)(F)F)nc4CC3)OC2)o1` [III-231], the Ki in experiment [1] was 490 nM; in experiment [2] it was 0.7 nM.

As for `Cc1cnc(CC(=O)N[C@H]2CC[C@H](CCN3CCc4ccc(OCC(F)(F)F)nc4CC3)OC2)o1` [III-234], the Ki came to 460 nM in experiment [1] and 0.77 nM in experiment [2].

Take `CCN1Cc2c(C(=O)N[C@H]3CC[C@H](CCN4CCc5ccc(OCC(F)(F)F)nc5CC4)OC3)cccc2C1=O` [III-236]: the values for the Ki in experiment [1] and in experiment [2] were 120 nM and 0.086 nM, respectively.

Consider `Cn1cc2c(C(=O)N[C@H]3CC[C@H](CCN4CCc5nc(OC6CC(F)(F)C6)sc5CC4)CC3)cccc2n1` [III-244], for which the Ki is more than 1900 nM in experiment [1] and 0.24 nM in experiment [2].

`Cn1cc2c(C(=O)N[C@H]3CC[C@H](C(O)CN4CCc5ccc(OCC(F)(F)F)nc5CC4)CC3)cccc2n1` (some centres unmarked) [III-248]: the Ki in experiment [1] is more than 1900 nM; in experiment [2] it was 1.6 nM.

In the case of `Cc1ncccc1C(=O)N[C@H]1CC[C@](F)(CCN2CCc3nc(OCC(F)(F)F)sc3CC2)CC1` [III-252], the Ki stood at 590 nM in experiment [1] and 0.43 nM in experiment [2].

Regarding `Cc1nnc(CC(=O)N[C@H]2CC[C@](F)(CCN3CCc4nc(OCC(F)(F)F)sc4CC3)CC2)o1` [III-253], the Ki in experiment [1] was found to be 610 nM; in experiment [2], 0.58 nM.

Turning to `Cc1ncc(OCC(=O)N[C@H]2CC[C@](F)(CCN3CCc4nc(OCC(F)(F)F)sc4CC3)CC2)cn1` [III-254], the Ki came out at 570 nM in experiment [1] and 0.43 nM in experiment [2].

Turning to `Cc1cc(CC(=O)N[C@H]2CC[C@](F)(CCN3CCc4nc(OCC(F)(F)F)sc4CC3)CC2)no1` [III-255], the Ki in experiment [1] was more than 1800 nM; in experiment [2], 0.67 nM.

`Cn1cc(CC(=O)N[C@H]2CC[C@](F)(CCN3CCc4nc(OCC(F)(F)F)sc4CC3)CC2)cn1` [III-261]: the Ki in experiment [1] turned out to be 480 nM; in experiment [2], 0.57 nM.

Consider `Cc1ncc(CC(=O)N[C@H]2CC[C@](F)(CCN3CCc4nc(OCC(F)(F)F)sc4CC3)CC2)o1` [III-262], for which the Ki in experiment [1] is 560 nM; in experiment [2], 0.22 nM.

With `Cc1nc(CC(=O)N[C@H]2CC[C@](F)(CCN3CCc4nc(OCC(F)(F)F)sc4CC3)CC2)no1` [III-264], the Ki in experiment [1] was more than 1800 nM; in experiment [2], 0.25 nM.

Turning to `Cc1cnc(CC(=O)N[C@H]2CC[C@](F)(CCN3CCc4nc(OCC(F)(F)F)sc4CC3)CC2)o1` [III-266], the Ki is more than 1800 nM in experiment [1] and 0.15 nM in experiment [2].

As to `Cn1cc(OCC(=O)N[C@H]2CC[C@](F)(CCN3CCc4nc(OCC(F)(F)F)sc4CC3)CC2)cn1` [III-268], the values for the Ki in experiment [1] and in experiment [2] were 340 nM and 0.39 nM, respectively.

Regarding `Cc1nnc(CC(=O)N[C@H]2CC[C@](F)(CCN3CCc4nc(OCC(F)(F)F)sc4CC3)CC2)s1` [III-269], the values for the Ki in experiment [1] and in experiment [2] were 290 nM and 0.36 nM, respectively.

With `Cn1cc2ccc(C(=O)N[C@H]3CC[C@H](CCN4CCc5nc(OCC(F)F)sc5CC4)CC3)cc2n1` [III-270], the Ki in experiment [1] was 1100 nM; in experiment [2] it was 0.6 nM.

With `Cc1ncccc1C(=O)N[C@H]1CC[C@H](CCN2CCc3nc(OCC(F)F)sc3CC2)CC1` [III-271], the Ki in experiment [1] worked out at 1100 nM; in experiment [2], 1.2 nM.

Regarding `Cc1nnc(CC(=O)N[C@H]2CC[C@H](CCN3CCc4nc(OCC(F)F)sc4CC3)CC2)o1` [III-273], the values for the Ki in experiment [1] and in experiment [2] were 570 nM and 0.78 nM, respectively.

Take `Cc1ncc(/C=C/C(=O)N[C@H]2CC[C@H](CCN3CCc4nc(OCC(F)F)sc4CC3)CC2)s1` [III-274]: the results for the Ki in experiment [1] and in experiment [2] were 140 nM and 0.12 nM, respectively.

As to `O=C1Cc2cccc(C(=O)N[C@H]3CC[C@H](CCN4CCc5nc(OCC(F)F)sc5CC4)CC3)c2N1` [III-280], the figures for the Ki in experiment [1] and in experiment [2] were 500 nM and 0.11 nM, respectively.

Turning to `Cn1cc2c(C(=O)N[C@H]3CC[C@H](CCN4CCc5sc(N6CC(F)(F)C6)nc5C4)CC3)cccc2n1` [III-439], the Ki in experiment [1] stood at 500 nM; in experiment [2], 0.29 nM.

Consider `Cn1cc2c(C(=O)N[C@H]3CC[C@H](CCN4CCc5sc(OCC(C)(F)F)nc5C4)CC3)cccc2n1` [III-441], for which the figures for the Ki in experiment [1] and in experiment [2] were 170 nM and 0.24 nM, respectively.

In the case of `Cc1ncc(CC(=O)N[C@H]2CC[C@H](CCN3CCc4sc(OCC(C)(F)F)nc4C3)CC2)o1` [III-451], the Ki in experiment [1] was 650 nM; in experiment [2], 0.48 nM.

With `Cn1cc2c(C(=O)N[C@H]3CC[C@H](CCN4CCc5sc(CCC(F)(F)F)nc5C4)CC3)cccc2n1` [III-452], the Ki stood at 1000 nM in experiment [1] and 0.29 nM in experiment [2].

In the case of `Cn1cc2c(C(=O)N[C@H]3CC[C@H](CCN4CCc5sc(OCC(F)(F)F)nc5C4)CC3)cccc2n1` [III-464], the Ki in experiment [1] was determined as 580 nM; in experiment [2], 0.37 nM.

Take `Cn1cc(CC(=O)N[C@H]2CC[C@H](CCN3CCc4sc(OC5CCC(F)(F)C5)nc4C3)CC2)cn1` (some centres unmarked) [III-484]: the results for the Ki in experiment [1] and in experiment [2] were 850 nM and 0.44 nM, respectively.

On to `Cc1nc(CC(=O)N[C@H]2CC[C@H](CCN3CCc4sc(N5CC(F)(F)C5)nc4C3)CC2)no1` [III-512], for which the figures for the Ki in experiment [1] and in experiment [2] were 1100 nM and 0.9 nM, respectively.

For the compound `CCCOc1nc2c(s1)CCN(CC[C@H]1CC[C@H](NC(=O)c3cccc4nn(C)cc34)CC1)C2` [III-544], the Ki is more than 1700 nM in experiment [1] and 0.55 nM in experiment [2].

On to `Cn1cc(CC(=O)N[C@H]2CC[C@H](CCN3CCc4sc(OCC(C)(F)F)nc4C3)CC2)c(F)n1` [III-547], for which the Ki in experiment [1] is 800 nM; in experiment [2] it was 0.64 nM.

`Cn1ncc(CC(=O)N[C@H]2CC[C@H](CCN3CCc4sc(OCC(C)(F)F)nc4C3)CC2)c1F` [III-548]: the figures for the Ki in experiment [1] and in experiment [2] were 830 nM and 0.46 nM, respectively.

As for `Cc1ncccc1C(=O)N[C@H]1CC[C@H](CCN2CCc3sc(OCC(C)(F)F)nc3C2)CC1` [III-555], the Ki amounted to 310 nM in experiment [1] and 0.4 nM in experiment [2].

Take `Cn1cc(OCC(=O)N[C@H]2CC[C@H](CCN3CCc4sc(OCC(C)(F)F)nc4C3)CC2)cn1` [III-573]: the Ki in experiment [1] was determined as 350 nM; in experiment [2], 0.32 nM.

Turning to `CC(F)(F)COc1nc2c(s1)CCN(CC[C@H]1CC[C@H](NS(=O)(=O)c3cccc(F)c3)CC1)C2` [III-576], the Ki was determined as 79 nM in experiment [1] and 0.44 nM in experiment [2].

As to `O=C(CCC(F)(F)F)N[C@H]1CC[C@H](CCN2CCc3sc(N4CC(F)(F)C4)nc3C2)CC1` [III-580], the Ki in experiment [1] turned out to be 540 nM; in experiment [2] it was 0.25 nM.

Regarding `Cc1ncccc1C(=O)N[C@H]1CC[C@H](CCN2CCc3sc(OCC(F)(F)F)nc3C2)CC1` [III-603], the Ki in experiment [1] was 610 nM; in experiment [2], 0.44 nM.

Regarding `CN1Cc2c(C(=O)N[C@H]3CC[C@H](CCN4CCc5sc(OCC(F)(F)F)nc5C4)CC3)cccc2C1=O` [III-610], the Ki stood at 330 nM in experiment [1] and 0.077 nM in experiment [2].

As for `Cn1cc(CC(=O)N[C@H]2CC[C@H](CCN3CCc4sc(COC(F)(F)F)nc4C3)CC2)cn1` [III-622], the Ki was more than 1800 nM in experiment [1] and 1.2 nM in experiment [2].

These data come from US10870660B2, “Nitrogen-containing condensed ring compounds having dopamine D3 antagonistic effect” (Shionogi & Co., Ltd., priority 2016, dated 2020).
